These results are taken from patent US7608278B2, “Formulations of hydrophobic proteins in an immunogenic composition having improved tolerability” (priority 2003, dated 2009).

Data set [1] concerns rat footpad. Description: Rat footpad (paw-lick) pain test. Format: in vivo, Male Sprague Dawley rats. The note with it: for Mean time pain response, 0-10 min. / Mean time pain response, 10-20 min.: 200 μl, 8 rats per group; for Pain in rat footpad model, survey of detergents (result in words): Example 9, injected at concentrations above the CMC for the detergent; for Pain response in the rat footpad model (result in words): Examples 1-7 and 10, footpad injection 0.1 or 0.2 ml. An excerpt:
An animal model, the rat paw-lick (footpad) model, which has previously been employed for detection of pain associated with the injection of antibiotics, was utilized (Celozzi et al. J. Pharmacol. Methods, 1980, 4:[…]; Comerski et al., Fundamental and Appl. Toxicology, 1986, 6:335-338). This model monitors the amount of time the rats spend lifting, licking, and biting the injected paw.
The “rat footpad pain” or “rat paw-lick” test or model as used herein refers to a test or model used to determine the pain induced by a specific formulation upon injection. The test consists of uniformly injecting into the footpad of rats of the same species and approximately the same weights compositions to be assessed as pain causing agents along with compositions known to cause pain at the injection site, as well as compositions known not to cause pain at the injection site. A statistically significant number of animals are to be used for each test and control formulation. After the injection, the animal is placed in a cage with mirrors and then observed by a technician (preferably blinded as to the identity of the immunogenic composition) for 20 to 30 minutes for flinching, lifting, licking, or biting of the injected paw. The amount of time spent on these pain response behaviors are recorded using a stopwatch and summed for 10 minute periods.
The phrase “less painful” as used herein refers to an alteration in the composition that leads to a reduction in the length of time or intensity, or both, of a pain response compared to that of the non-altered composition as measured by the rat footpad pain test. The phrase “50% reduction in pain” as used herein refers to a 50% reduction in the amount of time spent on pain responses as measured by the rat footpad pain test when comparing altered and unaltered immunogenic compositions administered in equal injection volumes by the same means and observed for the same length of time. The number of animals in each group is a statistically significant number. Observation of the different injection groups is preferably done by the same technician and who is blinded as to the identification of the compositions.
Rat footpad pain testing. The immunogenic composition samples were brought to room temperature prior to being administered to the animals. The animals were injected by a technician who was not involved in the monitoring of pain responses. Male Sprague Dawley rats (Crl:CD®(SD)IGS BR, 50-100 g at arrival) from Charles River Laboratories Inc. (Kingston, N.Y.) were used for all studies. The rats were acclimated at the research facility for approximately one week prior to initiation of a study, at which point they weighed 100-150 g. The paw to be injected was examined prior to injection to verify absence of any injury. The animal was then restrained in the technician's arm such that the hind legs extended forward. The right rear leg was grasped just above the hock joint and pressure was exerted to hold the paw straight out, with plantar (sole) facing upwards. Using a new 23 gauge needle for each animal, the operator inserted the bevel side up in the center of paw, parallel to the surface of the paw, until the needle was in the center of the pad. The material was then injected and the needle left in place for 3-5 seconds prior to withdrawal, to minimize leakage from the injection site. […]
The animal was then placed in a cage with 3 mirrors (adjoining sides and floor) and observed by a different technician (blinded as to the identity of the immunogenic composition) for 30 minutes for flinching, lifting, licking, or biting of the injected paw. The length of time spent on these pain response behaviors was recorded using a stopwatch and summed for 10 minute periods. […]
Statistical Analysis. Results were analyzed using an ANOVA method adjusting for multiple comparisons that compared each treatment group with control group who received buffer alone (either PBS or TBS). […]

The conditions of data set [2]: known critical micelle concentrations, cited from earlier work.
[3] abbreviates: Example 9 (Table 16), concentration 0.025%.
The mark [4] stands for this setting: Example 9 (Table 17), concentration 0.8%.
The mark [5] stands for this setting: Example 9 (Table 15), detergent concentration 0.05%.
The mark [6] stands for this setting: Example 9 (Table 15), detergent concentration 0.05%, listed as Zw3-14.
Where [7] appears, read: Example 9 (Table 16), concentration 0.02%.

“And” between values parts separate entries of the source, which are not always exact repeats. Equal values may be shown once. Read-outs that look alike come from different tables or passages of the source.

With `CCCCCCCC/C=C\CCCCCCCC(=O)OCCOCC(OCCO)C1OCC(OCCO)C1OCCO` (stereo not drawn) [TWEEN 80, Polyoxyethylene (20) sorbitan monooleate], in data set [1] (setting [3]), the “Mean time pain response, 0-10 min.” value amounted to 3 s and the “Mean time pain response, 10-20 min.” value was 6 sec. The “Pain in rat footpad model, survey of detergents (result in words)” value (“Pain in rat footpad model, survey” for short) in data set [1] was “do not cause significant pain”. In data set [2], the “CMC” value was 0.012 mM and the “CMC (%)” value is 0.0016%.
For the molecule `CCCCCCCCCC[N+](C)(C)CCCS(=O)(=O)[O-]` [Zwittergent ® 3-10, n-Decyl-N,N-dimethyl-3-ammonio-1-propanesulfonate], in data set [1] (setting [4]), the “Mean time pain response, 0-10 min.” value is 300.6 s and the “Mean time pain response, 10-20 min.” value is on record as 260.5 sec. Also, the “Pain in rat footpad model, survey” value in data set [1] is reported as “caused significant pain”. Also, in data set [2], the “CMC” value is 25 to 40 mM and the “CMC (%)” value is reported as 0.43-1.23%.
For `CCCCCCCCCCCC[N+](C)(C)CCCS(=O)(=O)[O-]` [Zwittergent ® 3-12, n-Dodecyl-N,N-dimethyl-3-ammonio-1-propanesulfonate], in data set [1] (setting [5]), the “Mean time pain response, 0-10 min.” value worked out at 295.3 s and the “Mean time pain response, 10-20 min.” value was 139.8 sec. In data set [1], the “Pain in rat footpad model, survey” value is “caused significant pain” and the “Pain response in the rat footpad model (result in words)” value is recorded as “responsible for the pain on injection”. In data set [2], the “CMC” value was 2 to 4 mM and the “CMC (%)” value was 0.047-0.13%.
Consider `CCCCCCCCCCCCCC[N+](C)(C)CCCS(=O)(=O)[O-]` [Zwittergent ® 3-14, n-Tetradecyl-N,N-dimethyl-3-ammonio-1-propanesulfonate], for which, in data set [1] (setting [6]), the “Mean time pain response, 0-10 min.” value is 44.7 s and 37.8 s; the “Mean time pain response, 10-20 min.” value is 33.6 sec. and 30.1 sec. In addition, in data set [1], the “Pain in rat footpad model, survey” value is given as “caused significant pain” and the “Pain response in the rat footpad model (result in words)” value is listed as “responsible for the pain on injection”. Besides, in data set [2], the “CMC” value was 0.1 to 0.4 mM and the “CMC (%)” value is recorded as 0.004-0.015%. Besides, in data set [2] (listed as Zw 3-14), the “CMC (%)” value is recorded as 0.004%-0.015%.
With “Polyoxyethylene (35) Lauryl Ether [BRIJ]”, in data set [1] (setting [7]), the “Mean time pain response, 0-10 min.” value amounted to 1 s and the “Mean time pain response, 10-20 min.” value is listed as 0 sec. Moreover, the “Pain in rat footpad model, survey” value in data set [1] is “do not cause significant pain”. Moreover, in data set [2], the “CMC” value is listed as 0.09 mM and the “CMC (%)” value was 0.011%.
On to “alpha-[4-(1,1,3,3-tetramethylbutyl)phenyl]-omega-hydroxypoly(oxy-1,2-ethanediyl) [TRITON ® X-100]”, for which, in data set [1] (setting [5]), the “Mean time pain response, 0-10 min.” value was 8.5 s and the “Mean time pain response, 10-20 min.” value is 11.2 sec. Also, the “Pain in rat footpad model, survey” value in data set [1] was “do not cause significant pain”. Also, in data set [2], the “CMC” value is 0.2 to 0.9 mM and the “CMC (%)” value is 0.013-0.056%.
